Values quoted from earlier work as cited in patent publication US20100086625A1, “METHODS FOR TREATING SKIN LESIONS” (priority 2008, published 2010).

Test system: cold sores
Conditions: oral

Row | Structure (SMILES) | shortening of the herpes infection (1500 mg) | shortening of a herpes infection (2 gm twice a day for one day)
1 | CC(=O)OCC(CCn1cnc2cnc(N)nc21)COC(C)=O [famciclovir] | two | 
2 | CC(C)[C@H](N)C(=O)OCCOCn1cnc2c(=O)[nH]c(N)nc21 [valacyclovir] |  | over one
